Experimental data reported in PMC6630443 (Viruses, 2019).

Legend:
persistent USUV [1] = type: cell-based, Usutu virus
in vitro = settings: African green monkey
persistent USUV [2] = type: cell-based, Usutu virus; remark: listed apart in the source
USUV = test: microbe, parasite or virus in culture; type: cell-based; settings: Usutu virus, Vero, 48 h
[3] = in vivo; cited from earlier work

| SMILES | Decrease in intracellular viral RNA levels (persistent USUV [1]) | CC50 (in vitro) | Day by which infectious virus in the cellular supernatant is completely extinct (persistent USUV [2]) | Decrease in virus titers and RNA levels in cellular supernatants (persistent USUV [2]) | IC50 (USUV) | Toxicity in words (Vero cells) | Plasma concentration [3] |
| --- | --- | --- | --- | --- | --- | --- | --- |
| NC(=O)c1ncn([C@@H]2O[C@H](CO)[C@@H](O)[C@H]2O)n1 [Ribavirin, 1-(β-D-Ribofuranosyl)-1H-1,2,4-triazole-3-carboxamide] | < 2 log10 | > 2000 µM | ≤ 6 days | ~ 5 log10 | 163 µM |  |  |
| O=c1[nH]cc(F)c(=O)[nH]1 [5-Fluorouracil, 2,4-dihydroxy-5-fluoropyrimidine] |  | 66 µM |  |  | 71 µM | elevated toxicity |  |
| NC(=O)c1nc(F)cnc1O [Favipiravir, 6-fluoro-3-hydroxy-2-pyrazinecarboxamide] | < 2 log10 | > 2000 µM | ≤ 6 days | ~ 5 log10 | 315 µM |  | 1500 to 2000 µM |
